{
  "source": "paper PMC10538209",
  "about": "“Ginsentide-like Coffeetides Isolated from Coffee Waste Are Cell-Penetrating and Metal-Binding Microproteins” (Molecules, 2023)",
  "key": {"Acidic stability assay": {"assay": "Acidic stability assay", "type": "physicochemical", "conditions": "native cC1a 200 µM; acidic conditions (pH 2), 1 M HCl in legend, 2 M HCl in method, 2 h; quenched with 1 M NaOH; RP-UHPLC; triplicate", "procedure": "(§1) Figure 6 Stability assays of coffeetide cC1a. An amount of 200 µM coffeetide cC1a was subjected to (A) heat at 100 °C for 2 h, (B) acidic conditions in 1 M HCl (pH 2.0) for 2 h, (C) pepsin in 100 mM sodium citrate buffer (pH 2.5) for 6 h, (D) aminopeptidase I in 20 mM tricine for 6 h, and (E) human serum for 36 h. MALDI-TOF MS was used to characterize coffeetide cC1a and reversed-phase ultra-high pressure liquid chromatography was used to quantify cC1a in the treated samples to calculate the percentage of cC1a remaining intact.\n(§2) Thermal and acidic stability: A solution of purified 200 µM coffeetide cC1a was subjected to rigorous conditions, including incubation at 100 °C in a water bath and exposure to 2 M hydrochloric acid for 2 h. The reactions were promptly quenched, either by placing the samples in an ice bath for 10 min or by adding 1 M sodium hydroxide at various time intervals (0, 30, 60, 90, 120 min). Subsequently, the treated samples were injected into RP-UHPLC to evaluate the presence of coffeetide cC1a and quantify any degradation. Each experiment was conducted in triplicate, and MALDI-TOF MS was employed to analyze the collected peaks."}, "pepsin": {"system": "T1, pepsin", "T1 construct": "purchased Sigma Aldrich or Fisher Scientific (general statement only)", "assay": "Proteolytic stability, pepsin", "type": "in vitro ADME", "conditions": "native cC1a 200 µM, 4 mg/mL pepsin in 100 mM sodium citrate buffer pH 2.5, 37 °C, RP-UHPLC, read-out: coffeetide remained intact with pepsin", "procedure": "as §1\n(§3) Proteolytic stability: In this test, purified 200 µM coffeetide cC1a was exposed to 37 °C for 6 h in the presence of 4 mg/mL of pepsin in a 100 mM sodium citrate buffer (pH 2.5) or 20 U/mL of aminopeptidase I in 20 mM tricine and 0.05% bovine serum albumin (pH 8.0). The peptide-to-enzyme ratio (w/w) was maintained at either 20:1 or 50:1. At specific time intervals (0, 2, 4, and 6 h), 20 µL of each sample was injected into RP-UHPLC to monitor degradation."}, "[1]": {"assay": "Isothermal titration calorimetry (ITC), Mg2+", "conditions": "10 mM Tris, 100 mM NaCl, pH 6.3, 20 °C in text (298 K in method), synthetic cC1a, read-out: binding affinity (KD) to Mg^2+", "procedure": "(§4) Isothermal Titration Calorimetry (ITC) experiments were conducted at 298 K using the MicroCal PEAQ ITC system from Malvern Instruments Ltd., Malvern, UK. MgCl2, KCl, CaCl2, and FeCl3 were dissolved in a 10 mM Tris buffer containing 100 mM NaCl at a pH of 6.3. Similarly, coffeetide cC1a was prepared in the same buffer. In the initial set of experiments, 200 µM of these ions were incrementally titrated into cC1a, involving twenty 2.5 µL injections, while simultaneously measuring the heat changes. Additional experiments were conducted with higher concentrations of KCl, MgCl2, and FeCl3 interacting with cC1a. Specifically, 400 µM of KCl, MgCl2, and FeCl3 were titrated into a solution containing 40 µM of cC1a, utilizing twenty 2.5 µL injections, and monitoring the associated heat changes. Control experiments were conducted by titrating ions into a 10 mM Tris (pH 6.3) buffer containing 100 mM NaCl to account for heat changes resulting from dilution. The obtained titration curves were analyzed using MicroCal PEAQ-ITC analytics software (version 1.0.0.1259, Malvern Instruments Ltd.)."}, "[2]": {"assay": "Human serum-mediated stability", "type": "in vitro ADME", "conditions": "25% human serum (AB-type) in DMEM, native cC1a, 25% human male serum (AB-type) in phenol red-free DMEM, 37 °C, ethanol precipitation, RP-UHPLC, read-out: coffeetide remained after treatment with human serum", "procedure": "as §1\nHuman serum-mediated stability: To assess stability in a biologically relevant context, purified 200 µg coffeetide cC1a was incubated with 25% human male serum (AB-type) in phenol red-free Dulbecco’s Modified Eagle Medium (DMEM) at 37 °C for 48 h. At defined time points (0 h, 12 h, 24 h, and 48 h), 50 µL of the samples were collected and treated with 100 µL of 95% ethanol to precipitate serum proteins. After incubation at 4 °C for 15 min and centrifugation at 13,000 rpm for 10 min, the extent of degradation was evaluated through RP-UHPLC chromatograms."}, "[3]": {"assay": "Isothermal titration calorimetry (ITC), K+", "type": "binding", "conditions": "200 µM (also 400 µM) metal ion titrated into cC1a, 10 mM Tris, 100 mM NaCl, pH 6.3", "procedure": "as §4"}, "HUVEC-CS cells": {"system": "HUVEC-CS cells", "assay": "MTT toxicity assay, HUVEC-CS", "type": "cell-based, human", "conditions": "24 h treatment, concentrations up to 100 µM, MTT absorbance 550 nm, mean ± S.E.M. n = 3", "procedure": "(§5) HeLa cells (human cervical cancer cells) and HUVEC-CS (human umbilical vein endothelial cells) were cultured in DMEM (Dulbecco’s Modified Eagle Medium) from Thermo Scientific, supplemented with 10% fetal bovine serum, 100 U/mL of penicillin, and streptomycin. Cell cultures were maintained in a 5% CO2 incubator at 37 °C.\n(§6) To evaluate cell viability, a 3-(4,5-dimethylthiazolyl-2)-2,5-diphenyltetrazolium bromide (MTT) dye reduction assay was employed. In brief, HeLa and HUVEC-CS cells were subjected to treatment with either coffeetide cC1a or 0.1% Triton X-100 (utilized as a positive control) for a duration of 24 h. Following the incubation period, MTT was introduced to the cells to achieve a final concentration of 0.5 mg/mL and incubated for 3 h at 37 °C. The resulting insoluble formazan crystals were subsequently dissolved by the addition of dimethyl sulfoxide, and absorbance was measured at 550 nm using a microplate reader (Tecan Infinite® 200 Pro, Switzerland)."}, "HeLa cells": {"system": "HeLa cells", "assay": "MTT toxicity assay, HeLa", "type": "cell-based, human", "conditions": "24 h treatment, concentrations up to 100 µM, MTT absorbance 550 nm, mean ± S.E.M. n = 3", "procedure": "as §5, §6"}, "aminopeptidase I": {"system": "T2, aminopeptidase I", "T2 construct": "purchased Sigma Aldrich or Fisher Scientific (general statement only)", "assay": "Proteolytic stability, aminopeptidase I", "type": "in vitro ADME", "conditions": "native cC1a 200 µM, 20 U/mL aminopeptidase I in 20 mM tricine, 0.05% BSA, pH 8.0, 37 °C, RP-UHPLC, read-out: coffeetide remained intact with aminopeptidase", "procedure": "as §1, §3"}, "[4]": {"assay": "Isothermal titration calorimetry (ITC), Ca2+", "type": "binding", "conditions": "200 µM metal ion titrated into cC1a, 10 mM Tris, 100 mM NaCl, pH 6.3", "procedure": "as §4"}, "[5]": {"assay": "Isothermal titration calorimetry (ITC), Fe3+", "conditions": "10 mM Tris, 100 mM NaCl, pH 6.3, 20 °C in text (298 K in method), synthetic cC1a, read-out: binding affinity (KD) to Fe^3+", "procedure": "as §4"}, "Thermal stability assay": {"assay": "Thermal stability assay", "type": "physicochemical", "conditions": "native cC1a 200 µM; high heat (95 °C in text; 100 °C water bath in legend and method), 2 h; quenched in ice bath; RP-UHPLC quantification; triplicate", "procedure": "as §1, §2"}},
  "note": "Positions of bridges follow the written chain, without caps; N, C: chain ends. Non-standard residues stand in square brackets, D forms with d. Residues, ends and D or L forms follow the SMILES beside them. pGlu = O=C1CC[C@@H](C(=O)O)N1",
  "data": [
    {"smiles": "CC[C@H](C)[C@@H]1NC(=O)[C@@H]2CSSC[C@@H]3NC(=O)[C@@H]4CCCN4C(=O)[C@H](CCC(=O)O)NC(=O)CNC(=O)[C@H](CC(C)C)NC(=O)[C@@H]4CCCN4C(=O)[C@H](CO)NC(=O)[C@@H](NC(=O)[C@H](CCC(=O)O)NC(=O)CNC(=O)[C@H](CCC(=O)O)NC(=O)[C@@H]4CCC(=O)N4)CSSC[C@@H]4NC(=O)[C@H](CSSC[C@H](NC(=O)[C@H](CCCNC(=N)N)NC(=O)[C@H](CC(=O)O)NC(=O)[C@H]([C@@H](C)O)NC(=O)[C@H](CC(C)C)NC(=O)[C@H](CCC(N)=O)NC(=O)[C@H](Cc5c[nH]c6ccccc56)NC1=O)C(=O)N[C@@H](C(C)C)C(=O)NCC(=O)N[C@@H](CC(N)=O)C(=O)N[C@H](C(=O)O)CSSC[C@H](NC(=O)CNC(=O)[C@@H]1CCCN1C4=O)C(=O)N[C@@H]([C@@H](C)CC)C(=O)N2)NC(=O)CNC(=O)[C@H](Cc1c[nH]c2ccccc12)NC(=O)[C@@H]1CCCN1C(=O)[C@H](CC(N)=O)NC(=O)CNC(=O)[C@H](C)NC3=O", "note": "[cC1a] ([pGlu]EGECSPLGEPCAGNPWGCCPGCICIWQLTDRCVGNC-OH; disulfide 5-20, 12-25, 19-33, 23-37)", "values": [
      {"measurement": "coffeetide remained intact under acidic conditions", "setting": "Acidic stability assay", "result": "> 88", "unit": "%"},
      {"measurement": "remaining at 6 h, 200 µM", "setting": "pepsin", "result": "> 90", "unit": "%"},
      {"measurement": "Kd", "setting": "[1]", "result": "4.19 ± 4.79", "unit": "µM"},
      {"measurement": "remaining at 36 h, 200 µM", "setting": "[2]", "result": "> 85", "unit": "%"},
      {"measurement": "binding affinity to K^+", "setting": "[3]", "result": "does not display reproducible binding affinity"},
      {"measurement": "cytotoxicity (MTT cell viability)", "setting": "HUVEC-CS cells", "result": "not cytotoxic"},
      {"measurement": "cytotoxicity (MTT cell viability)", "setting": "HeLa cells", "result": "not cytotoxic"},
      {"measurement": "remaining at 6 h, 200 µM", "setting": "aminopeptidase I", "result": "> 90", "unit": "%"},
      {"measurement": "binding affinity to Ca^2+", "setting": "[4]", "result": "does not display reproducible binding affinity"},
      {"measurement": "Kd", "setting": "[5]", "result": "1670 ± 1800", "unit": "nM"},
      {"measurement": "coffeetide remained intact under high heat", "setting": "Thermal stability assay", "result": "> 88", "unit": "%"}
    ]}
  ]
}
